Reference: patent US8048879B2, “Substituted 4,5,6,7-tetrahydro-isoxazolo[4,5-c]pyridine compounds and use thereof for producing medicaments” (Gruenenthal GmbH, priority 2005, dated 2011)

These compounds were tested on batrachotoxin (BTX) binding site of the sodium channel (assay: Affinity for the batrachotoxin (BTX) binding site of the sodium channel, [3H]-batrachotoxinin A20 α-benzoate, rat cerebrocortex synaptosomes). Conditions: test concentration not given.

Row | SMILES | BTX inhibition (rat) % inhibition
1 | C=CCOc1ccc(CN(Cc2ccco2)C(=O)c2noc3c2CN(S(=O)(=O)c2cccc(C(F)(F)F)c2)CC3)cc1 [Example 87, 5-(3-trifluoromethyl-benzenesulfonyl)-4,5,6,7-tetrahydro-isoxazolo[4,5-c]pyridine-3-carboxylic acid (4-allyloxy-benzyl)-furan-2-ylmethyl amide] | 41%
2 | Cc1cc(C(=O)N2CCc3onc(C(=O)NCCN4CCOCC4)c3C2)ccc1Br [Example 90, 5-(4-bromo-3-methyl-benzoyl)-4,5,6,7-tetrahydro-isoxazolo[4,5-c]pyridine-3-carboxylic acid (2-morpholin-4-yl-ethyl) amide] | 42%
3 | Cc1ccc(S(=O)(=O)N2CCc3onc(C(=O)NC4CCN(Cc5c(Cl)cccc5Cl)C4)c3C2)cc1 (stereo not shown) [Example 91, 5-(toluene-4-sulfonyl)-4,5,6,7-tetrahydro-isoxazolo[4,5-c]pyridine-3-carboxylic acid [1-(2,6-dichloro-benzyl)-pyrrolidin-3-yl] amide] | 61%
4 | O=C(NCCN1CCCC1)c1noc2c1CN(C(=O)COc1cccc(Cl)c1)CC2 [Example 94, 5-[2-(3-chlorophenoxy)-acetyl]-4,5,6,7-tetrahydro-isoxazolo[4,5-c]pyridine-3-carboxylic acid (2-pyrrolidin-1-yl-ethyl) amide] | 60%
5 | O=C(c1noc2c1CN(S(=O)(=O)c1ccccc1)CC2)N1CCN(CC=Cc2ccccc2)CC1 [Example 97, (5-benzenesulfonyl-4,5,6,7-tetrahydro-isoxazolo[4,5-c]pyridin-3-yl)-[4-(3-phenyl-allyl)-piperazin-1-yl]-methanone] | 70%
6 | Cc1cc(C(=O)N2CCc3onc(C(=O)NCCN4CCCC4)c3C2)ccc1Br [Example 102, 5-(4-bromo-3-methyl-benzoyl)-4,5,6,7-tetrahydro-isoxazolo[4,5-c]pyridine-3-carboxylic acid (2-pyrrolidin-1-yl-ethyl) amide] | 73%
7 | O=C(NC1CCN(Cc2ccc(C(F)(F)F)cc2)C1)c1noc2c1CN(S(=O)(=O)c1ccccc1)CC2 (stereo not shown) [Example 103, 5-benzenesulfonyl-4,5,6,7-tetrahydro-isoxazolo[4,5-c]pyridine-3-carboxylic acid [1-(4-trifluoromethyl-benzyl)-pyrrolidin-3-yl] amide] | 92%
8 | CC(CNC(=O)c1noc2c1CN(S(=O)(=O)c1cccs1)CC2)c1ccccc1 (stereo not shown) [Example 104, 5-(thiophene-2-sulfonyl)-4,5,6,7-tetrahydro-isoxazolo[4,5-c]pyridine-3-carboxylic acid (2-phenyl-propyl) amide] | 50%
9 | COc1ccc(OCCNC(=O)c2noc3c2CN(S(=O)(=O)c2ccc(C)cc2)CC3)cc1 [Example 109, 5-(toluene-4-sulfonyl)-4,5,6,7-tetrahydro-isoxazolo[4,5-c]pyridine-3-carboxylic acid [2-(4-methoxy-phenoxy)-ethyl] amide] | 56%
10 | O=C(c1noc2c1CN(S(=O)(=O)c1cc(Cl)ccc1Cl)CC2)N1CCN(c2ccccc2Cl)CC1 [Example 110, [4-(2-chlorophenyl)-piperazin-1-yl]-[5-(2,5-dichloro-benzenesulfonyl)-4,5,6,7-tetrahydro-isoxazolo[4,5-c]pyridin-3-yl]-methanone] | 55%
11 | O=C(NCc1ccc(C(F)(F)F)c(F)c1)c1noc2c1CN(S(=O)(=O)c1ccccc1)CC2 [Example 113, 5-benzenesulfonyl-4,5,6,7-tetrahydro-isoxazolo[4,5-c]pyridine-3-carboxylic acid 3-fluoro-4-trifluoromethyl-benzyl amide] | 60%
12 | CCCCOc1ccc(S(=O)(=O)N2CCc3onc(C(=O)NCC(C)C)c3C2)cc1 [Example 114, 5-(4-butoxy-benzenesulfonyl)-4,5,6,7-tetrahydro-isoxazolo[4,5-c]pyridine-3-carboxylic acid isobutyl amide] | 58%
13 | O=C(NCCN1CCCC1)c1noc2c1CN(S(=O)(=O)c1cccc(Cl)c1)CC2 [Example 118, 5-(3-chloro-benzenesulfonyl)-4,5,6,7-tetrahydro-isoxazolo[4,5-c]pyridine-3-carboxylic acid (2-pyrrolidin-1-yl-ethyl) amide] | 76%
14 | CC(C)CNC(=O)c1noc2c1CN(C(=O)C(NC(=O)OCc1ccccc1)c1ccccc1)CC2 (stereo not shown) [Example 126, [2-(3-isobutylcarbamoyl-6,7-dihydro-4H-isoxazolo[4,5-c]pyridin-5-yl)-2-oxo-1-phenyl-ethyl]-carbamic acid benzyl ester] | 88%
15 | COc1ccc(CNC(=S)N2CCc3onc(C(=O)NC4CCCC4)c3C2)cc1 [Example 127, 5-(4-methoxy-benzylthiocarbamoyl)-4,5,6,7-tetrahydro-isoxazolo[4,5-c]pyridine-3-carboxylic acid cyclopentyl amide] | 74%
16 | O=C(NC(=S)N1CCc2onc(C(=O)NCCN3CCCC3)c2C1)c1ccccc1 [Example 128, 5-benzoylaminocarbothioyl-4,5,6,7-tetrahydro-isoxazolo[4,5-c]pyridine-3-carboxylic acid (2-pyrrolidin-1-yl-ethyl) amide] | 74%
17 | O=C(NCC1CC1)c1noc2c1CN(C(=S)NCc1ccc(Cl)cc1)CC2 [Example 129, 5-(4-chloro-benzylthiocarbamoyl)-4,5,6,7-tetrahydro-isoxazolo[4,5-c]pyridine-3-carboxylic acid cyclopropylmethyl amide] | 53%
18 | COCCNC(=S)N1CCc2onc(C(=O)NCCc3ccccc3)c2C1 [Example 130, 5-(2-methoxy-ethylthiocarbamoyl)-4,5,6,7-tetrahydro-isoxazolo[4,5-c]pyridine-3-carboxylic acid phenethyl amide] | 68%
19 | O=C(NCCc1ccccc1)c1noc2c1CN(C(=S)Nc1c(F)c(F)c(F)c(F)c1F)CC2 [Example 131, 5-pentafluorophenylthiocarbamoyl-4,5,6,7-tetrahydro-isoxazolo[4,5-c]pyridine-3-carboxylic acid phenethyl amide] | 58%
20 | CC(NC(=S)N1CCc2onc(C(=O)NCCc3ccccc3)c2C1)c1ccccc1 (stereo not shown) [Example 132, 5-(1-phenyl-ethylthiocarbamoyl)-4,5,6,7-tetrahydro-isoxazolo[4,5-c]pyridine-3-carboxylic acid phenethyl amide] | 90%
21 | CCOC(=O)CCNC(=O)c1noc2c1CN(C(=S)NCC1CCCCC1)CC2 [Example 134, 3-{[5-(cyclohexylmethyl-thiocarbamoyl)-4,5,6,7-tetrahydro-isoxazolo[4,5-c]pyridine-3-carbonyl]-amino}-propionic acid ethyl ester] | 55%
22 | O=C(Nc1ccccc1)c1noc2c1CN(Cc1ccc3ccccc3c1Br)CC2 [Example 135, 5-(1-bromo-naphthalen-2-ylmethyl)-4,5,6,7-tetrahydro-isoxazolo[4,5-c]pyridine-3-carboxylic acid phenyl amide] | 61%
